Source: USRE48335E1, “Polymyxin derivatives as antimicrobial compounds” (priority 2014, dated 2020)
Values after ≈ are worked out from the molar mass of the structure shown. Positions of bridges follow the written chain, without caps; N, C: chain ends. Non-standard residues stand in square brackets, D forms with d. Residues, ends and D or L forms follow the SMILES beside them. *: point of attachment. Benzoyl(4-CF3) = O=C(c1ccc(C(F)(F)F)cc1)*; Heptanoyl(6-Me) = CC(C)CCCCC(=O)*; Heptanoyl = CCCCCCC(=O)*; Octanoyl = CCCCCCCC(=O)*; Orn = NCCC[C@H](N)C(=O)O; Dab = NCC[C@H](N)C(=O)O; Abu = CC[C@H](N)C(=O)O; Dap = NC[C@H](N)C(=O)O; Hexanoyl = CCCCCC(=O)*

Columns and labels:
Acinetobacter baumannii = tested on: Acinetobacter baumannii
Procedure, shortened: (§1)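 Lipopeptide TFA salts are serially diluted in cation-adjusted Mueller-Hinton broth and inoculated per the CLSI M100-S18 broth microdilution method. The MIC is then recorded, with polymyxin B sulphate included as a control.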

Enterobacter cloacae = tested on: Enterobacter cloacae
Procedure, shortened: as §1

Pseudomonas aeruginosa = tested on: Pseudomonas aeruginosa
Procedure, shortened: as §1

Compound	Minimum inhibitory concentration, Ab A ATCC 17978 (Acinetobacter baumannii)	Minimum inhibitory concentration, Ab ATCC 19606 (Acinetobacter baumannii)	Minimum inhibitory concentration, Ab FADDI-AB034 (Acinetobacter baumannii)	Minimum inhibitory concentration, Ec FADDI-EC001 (Enterobacter cloacae)	Minimum inhibitory concentration, Ec FADDI-EC003 (Enterobacter cloacae)	Minimum inhibitory concentration, Ec FADDI-EC006 (Enterobacter cloacae)	Minimum inhibitory concentration, Pa ATCC 27853 (Pseudomonas aeruginosa)	Minimum inhibitory concentration, Pa FADDI-PA022 (Pseudomonas aeruginosa)	Minimum inhibitory concentration, Pa FADDI-PA025 (Pseudomonas aeruginosa)
CCCCCCCC(=O)N[C@@H](CCN)C(=O)N[C@H](C(=O)N[C@@H](CN)C(=O)N[C@H]1CCNC(=O)[C@H]([C@@H](C)O)NC(=O)[C@H](CCN)NC(=O)[C@H](CCCN)NC(=O)[C@H]([C@@H](C)O)NC(=O)[C@@H](CC(C)C)NC(=O)[C@H](CCN)NC1=O)[C@@H](C)O [Compound 54] (Octanoyl-[Dab]T[Dap][Dab][Dab][dL]T[Orn][Dab]T; lactam 4-C)	0.5 µg/mL (≈ 0.437 µM)	0.5 µg/mL (≈ 0.437 µM)	0.25 µg/mL (≈ 0.219 µM)	<0.125 µg/mL	<0.125 µg/mL	0.25 µg/mL (≈ 0.219 µM)	4 µg/mL (≈ 3.5 µM)	2 µg/mL (≈ 1.75 µM)	16 µg/mL (≈ 14 µM)
CCCCCCCC(=O)N[C@@H](CCN)C(=O)N[C@H](C(=O)N[C@@H](CN)C(=O)N[C@H]1CCNC(=O)[C@H]([C@@H](C)O)NC(=O)[C@H](CCN)NC(=O)[C@H](CCN)NC(=O)[C@H]([C@@H](C)O)NC(=O)[C@@H](CC(C)C)NC(=O)[C@H](CCCN)NC1=O)[C@@H](C)O [Compound 55] (Octanoyl-[Dab]T[Dap][Dab][Orn][dL]T[Dab][Dab]T; lactam 4-C)	>32 µg/mL	>32 µg/mL	>32 µg/mL	1 µg/mL (≈ 0.875 µM)	4 µg/mL (≈ 3.5 µM)	>32 µg/mL	>32 µg/mL	>32 µg/mL	>32 µg/mL
CC(C)C[C@H]1NC(=O)[C@H](CCN)NC(=O)[C@@H](NC(=O)[C@H](CN)NC(=O)[C@@H](NC(=O)[C@H](CCN)NC(=O)c2ccc(C(F)(F)F)cc2)[C@@H](C)O)CCNC(=O)[C@H]([C@@H](C)O)NC(=O)[C@H](CCN)NC(=O)[C@H](CCN)NC(=O)[C@H]([C@@H](C)O)NC1=O [Compound 56] ({Benzoyl(4-CF3)}-[Dab]T[Dap][Dab][Dab][dL]T[Dab][Dab]T; lactam 4-C)	1 µg/mL (≈ 0.851 µM)	2 µg/mL (≈ 1.7 µM)	1 µg/mL (≈ 0.851 µM)	<0.125 µg/mL	<0.125 µg/mL	0.25 µg/mL (≈ 0.213 µM)	0.5 µg/mL (≈ 0.425 µM)	2 µg/mL (≈ 1.7 µM)	4 µg/mL (≈ 3.4 µM)
CCCCCCCC(=O)N[C@@H](CCN)C(=O)N[C@H](C(=O)N[C@@H](CCN)C(=O)N[C@H]1CCNC(=O)[C@H]([C@@H](C)O)NC(=O)[C@H](CCN)NC(=O)[C@H](CCN)NC(=O)[C@H](CC)NC(=O)[C@@H](CC(C)C)NC(=O)[C@H](CCN)NC1=O)[C@@H](C)O [Compound 60] (Octanoyl-[Dab]T[Dab][Dab][Dab][dL][Abu][Dab][Dab]T; lactam 4-C)	0.5 µg/mL (≈ 0.443 µM)	1 µg/mL (≈ 0.887 µM)	0.5 µg/mL (≈ 0.443 µM)	<0.125 µg/mL	<0.125 µg/mL	0.5 µg/mL (≈ 0.443 µM)	0.5 µg/mL (≈ 0.443 µM)	0.5 µg/mL (≈ 0.443 µM)	8 µg/mL (≈ 7.1 µM)
CCCCCCC(=O)N[C@@H](CCN)C(=O)N[C@H](C(=O)N[C@@H](CN)C(=O)N[C@H]1CCNC(=O)[C@H]([C@@H](C)O)NC(=O)[C@H](CCN)NC(=O)[C@H](CCN)NC(=O)[C@H](C)NC(=O)[C@@H](CC(C)C)NC(=O)[C@H](CCN)NC1=O)[C@@H](C)O [Compound 63] (Heptanoyl-[Dab]T[Dap][Dab][Dab][dL]A[Dab][Dab]T; lactam 4-C)	1 µg/mL (≈ 0.921 µM)	2 µg/mL (≈ 1.84 µM)	1 µg/mL (≈ 0.921 µM)	0.5 µg/mL (≈ 0.461 µM)	<0.125 µg/mL	0.5 µg/mL (≈ 0.461 µM)	0.5 µg/mL (≈ 0.461 µM)	2 µg/mL (≈ 1.84 µM)	>32 µg/mL
CCCCCCC(=O)N[C@@H](CCN)C(=O)N[C@H](C(=O)N[C@@H](CN)C(=O)N[C@H]1CCNC(=O)[C@H]([C@@H](C)O)NC(=O)[C@H](CCN)NC(=O)[C@H](CCN)NC(=O)[C@H](CC)NC(=O)[C@@H](CC(C)C)NC(=O)[C@H](CCN)NC1=O)[C@@H](C)O [Compound 64] (Heptanoyl-[Dab]T[Dap][Dab][Dab][dL][Abu][Dab][Dab]T; lactam 4-C)	0.5 µg/mL (≈ 0.455 µM)	0.5 µg/mL (≈ 0.455 µM)	1 µg/mL (≈ 0.91 µM)	0.5 µg/mL (≈ 0.455 µM)	<0.125 µg/mL	0.25 µg/mL (≈ 0.227 µM)	1 µg/mL (≈ 0.91 µM)	2 µg/mL (≈ 1.82 µM)	8 µg/mL (≈ 7.28 µM)
CC(C)CCCCC(=O)N[C@@H](CCN)C(=O)N[C@H](C(=O)N[C@@H](CN)C(=O)N[C@H]1CCNC(=O)[C@H]([C@@H](C)O)NC(=O)[C@H](CCN)NC(=O)[C@H](CCN)NC(=O)[C@H](C)NC(=O)[C@@H](CC(C)C)NC(=O)[C@H](CCN)NC1=O)[C@@H](C)O [Compound 65] ({Heptanoyl(6-Me)}-[Dab]T[Dap][Dab][Dab][dL]A[Dab][Dab]T; lactam 4-C)	0.25 µg/mL (≈ 0.227 µM)	0.5 µg/mL (≈ 0.455 µM)	1 µg/mL (≈ 0.91 µM)	0.5 µg/mL (≈ 0.455 µM)	<0.125 µg/mL	0.25 µg/mL (≈ 0.227 µM)	1 µg/mL (≈ 0.91 µM)	2 µg/mL (≈ 1.82 µM)	16 µg/mL (≈ 14.6 µM)
CC[C@@H]1NC(=O)[C@@H](CC(C)C)NC(=O)[C@H](CCN)NC(=O)[C@@H](NC(=O)[C@H](CN)NC(=O)[C@@H](NC(=O)[C@H](CCN)NC(=O)CCCCC(C)C)[C@@H](C)O)CCNC(=O)[C@H]([C@@H](C)O)NC(=O)[C@H](CCN)NC(=O)[C@H](CCN)NC1=O [Compound 66] ({Heptanoyl(6-Me)}-[Dab]T[Dap][Dab][Dab][dL][Abu][Dab][Dab]T; lactam 4-C)	0.25 µg/mL (≈ 0.225 µM)	0.25 µg/mL (≈ 0.225 µM)	0.5 µg/mL (≈ 0.449 µM)	0.5 µg/mL (≈ 0.449 µM)	<0.125 µg/mL	0.25 µg/mL (≈ 0.225 µM)	1 µg/mL (≈ 0.898 µM)	2 µg/mL (≈ 1.8 µM)	4 µg/mL (≈ 3.59 µM)
CCCCCC(=O)N[C@@H](CCN)C(=O)N[C@H](C(=O)N[C@@H](CN)C(=O)N[C@H]1CCNC(=O)[C@H]([C@@H](C)O)NC(=O)[C@H](CCN)NC(=O)[C@H](CCN)NC(=O)[C@H](C)NC(=O)[C@@H](CC(C)C)NC(=O)[C@H](CCN)NC1=O)[C@@H](C)O [Compound 67] (Hexanoyl-[Dab]T[Dap][Dab][Dab][dL]A[Dab][Dab]T; lactam 4-C)	2 µg/mL (≈ 1.87 µM)	4 µg/mL (≈ 3.73 µM)	4 µg/mL (≈ 3.73 µM)	<0.125 µg/mL	0.25 µg/mL (≈ 0.233 µM)	0.5 µg/mL (≈ 0.467 µM)	0.5 µg/mL (≈ 0.467 µM)	0.5 µg/mL (≈ 0.467 µM)	2 µg/mL (≈ 1.87 µM)
CCCCCC(=O)N[C@@H](CCN)C(=O)N[C@H](C(=O)N[C@@H](CN)C(=O)N[C@H]1CCNC(=O)[C@H]([C@@H](C)O)NC(=O)[C@H](CCN)NC(=O)[C@H](CCN)NC(=O)[C@H](CC)NC(=O)[C@@H](CC(C)C)NC(=O)[C@H](CCN)NC1=O)[C@@H](C)O [Compound 68] (Hexanoyl-[Dab]T[Dap][Dab][Dab][dL][Abu][Dab][Dab]T; lactam 4-C)	1 µg/mL (≈ 0.921 µM)	2 µg/mL (≈ 1.84 µM)	1 µg/mL (≈ 0.921 µM)	0.25 µg/mL (≈ 0.23 µM)	<0.125 µg/mL	<0.125 µg/mL	0.5 µg/mL (≈ 0.461 µM)	0.5 µg/mL (≈ 0.461 µM)	2 µg/mL (≈ 1.84 µM)
